US20090137631A1, “METHODS AND PHARMACEUTICAL COMPOSITIONS FOR REGULATION OF G- AND/OR GC-RICH NUCLEIC ACID EXPRESSION” (NATIONAL YANG-MING UNIVERSITY, priority 2007, published 2009)
“And” between values parts separate entries of the source, which are not always exact repeats. Equal entries are not always repeated.

Columns and labels:
[1] = system: bFGF proteins in U-87 MG cells; test: Immunofluorescence staining of bFGF protein (FACS and fluorescence microscopy); assay type: cell-based, human
Experimental: U-87 MG cells were treated with indicated concentrations (0, 0.1, 1 and 10 μg/ml) of free-form and liposomal thalidomide and fixed in 4% (w/v) paraformaldehyde (Sigma-Aldrich) in PBS for 15 min, permeabilized with 0.01% (v/v) Triton X-100 (Sigma-Aldrich) or 0.5% (v/v) saponin (Sigma-Aldrich) in PBS for 30 min at room temperature. The cells were subsequently treated with 0.5 μg polyclonal rabbit anti human bFGF antibody (ab16828, Abeam) for 30 min at room temperature, washed, followed by staining with FITC-conjugated goat anti-rabbit IgG (Jackson ImmunoResearch) at 1:200 dilution for 30 min. Hoechst 33258 (Sigma-Aldrich) was used as a nuclear marker. The cells were then washed and visualized using a fluorescence microscope (Olympus Optical Co, Tokyo, Japan) or analyzed using the BD FACSCalibur™ flow cytometer (BD Biosciences). The relative expression level of cellular bFGFs was calculated by normalized the mean fluorescence value of each treatment with the empty liposome treated control. […] Because HMW bFGFs were the major isoforms localized in nucleus (Renko et al., 1990), a decrease of its signal intensity in this compartment might reflect a reduced expression of HMW bFGFs.

[2] = system: U-87 MG cells; test: Resazurin cell proliferation assay; assay type: cell-based, human; settings: 0˜100 μg/ml, 72 hr (FIG. 3A)
Experimental: Cell proliferation ability was assayed using a resazurin assay (Nociari et al., 1998), in which resazurin dye was used as a redox indicator to detect cell growth, not cell death. Resazurin sodium (Sigma-Aldrich) stock solution in PBS (5 mM) was prepared, and the working solution (50 μM) was diluted from the stock using DMEM (Gibco) without FBS. Approximately 3000 U-87 MG cells were seeded onto 96-well plates (Costar, Corning), allowed to attach at 37° C. in a humidified incubator of 5% CO2-95% air for 16 hr, and treated with indicated concentrations (0, 0.1, 1, 10, and 100 μg/ml) of free-form and liposomal thalidomide for 72 h. For resazurin assay, the culture medium was removed and freshly diluted resazurin working solution (100 μl) was added into each well. Following incubation at 37° C. in a humidified incubator of 5% CO2-95% air for 2 hr, the resazurin dye was reduced by the activity of living cells, and the reduced form of resazurin was determined at a fluorescence excitation wavelength 530 nm and emission wavelength 590 nm by a Victor 2 1420 Multilable Counter (Wallac, PerkinElmer).

[3] = system: U-87 MG cells; test: Soft agar colony formation assay (anchorage-independent growth); assay type: cell-based, human; settings: 2 weeks; for colony-forming ability in soft agar (anchorage-independent growth): 0.1˜10 μg/ml
Experimental: Because bFGF was known to promote cell transformation (Vagner et al., 1996), the soft agar colony formation assay (Murphy et al., 1992) and hanging drop method (Kelm et al., 2003) were used to assess the effects of thalidomide on anchorage-independent and three-dimensional growth abilities of U-87 MG cells, respectively. The colony forming assay was performed according to a two-layer agar technique (Murphy et al., 1992). The bottom layer consisted of 0.3 ml of DMEM with 10% FBS and 0.5% (w/v) agarose (Amresco). Approximately 1000 U-87 MG cells were added to the same medium containing 10% FBS and 0.3%) (w/v) low-melting agarose (Amresco) plus indicated concentrations (0, 0.1, 1 and 10 μg/ml) of free-form thalidomide, and plated in 24-well plates (Costar, Corning) onto the base layer. […] Colony-forming ability (size, >0.1 mm) was measured.

[4] = system: U-87 MG cells; test: Hanging drop spheroid aggregation assay; assay type: cell-based, human; settings: 0.1˜10 μg/ml, 48 hr, dose-dependently
Experimental: For hanging drop assay, approximately 1000 U-87 MG cells per 20 μl of cell suspension in culture medium (DMEM with 10% FBS) with indicated concentrations (0, 0.1, 1 and 10 μg/ml) of free-form thalidomide were spotted on the cover of a 6-cm culture dish (Falcon). The cover was returned to its top position with the cell suspension droplet facing down toward the bottom dish, which contained 5 ml of DMEM for maintenance of moisture during incubation. […] Each spheroid was photographed by using phase-contrast microscopy. The aggregation percentage was assayed by calculating the aggregation ability from 20 spheroids for each assay condition. The cell aggregates formed in spheroid culture was abolished by free-form thalidomide dose-dependently (FIG. 3D and FIG. 3E).

[5] = system: bFGF promoter; test: bFGF promoter-controlled EGFP reporter expression in U87-bFGF-EGFP cells; assay type: cell-based, human; settings: 0.1˜10 μg/ml, 3 hr, dose-dependent
Experimental: To evaluate the effect of thalidomide on the transcription driven by bFGF promoter, pbFGF-EGFP plasmid, containing bFGF promoter to drive the expression of enhanced green fluorescence protein (EGFP), was stably transfected into U-87 MG to get U87-bFGF-EGFP cell. […] Approximately 2×10^5 U-87 MG cells were plated in 6-well plates (Falcon) 24 hr before transfection and exposed to 3 μg total DNA (plasmid pbFGF-EGFP) and 3 μl Lipofectamine 2000 (Invitrogen Corp.) in DMEM without FBS according to the manufacture's brochure of Lipofectamine 2000. After cultured at 37° C. in a humidified incubator of 5% CO2-95% air for 48 hr, cells were trypsinized and passaged into DMEM with 10% FBS (20× dilutions). Stable transfectants (U87-bFGF-EGFP cells) were selected by using geneticin (800 μg/ml; Merck Biosciences) for 1 month.
U87-bFGF-EGFP cells were treated with indicated concentrations (0, 0.1, 1 and 10 μg/ml) of free-form thalidomide for 3 hr. The fluorescence of EGFP was measured by flow cytometry (FACS Calibur, BD Biosciences). […] The RNA levels of EGFP were analyzed by real-time RT-PCR and GAPDH was used as an internal control.

[6] = system: LMW-IRES; test: Bicistronic luciferase IRES activity, U87-LMW-IRES cells; assay type: cell-based, human; settings: 0.1˜10 μg/ml, 12 hr
From the text: (§1) To examine whether the G- and/or GC-rich region in IRES of N-terminal extension of bFGF transcript could also be regulated by thalidomide, plasmids pHMW-IRES and pLMW-IRES (FIG. 5A) were designed using bicistronic vector as previous described (Creancier et al., 2000). There were two luciferase genes, Renilla luciferase (LucR) and firefly luciferase (LucF), which were controlled by the cytomegalovirus (CMV) promoter and separated by the LMW-IRES fragment (SEQ ID NO. 12) and HMW-IRES fragment (SEQ ID NO. 15) in plasmids pLMW-IRES or pHMW-IRES (FIG. 5A), respectively. […] Approximately 2×10^5 U-87 MG cells were plated in 6-well plates (Falcon) 24 hr before transfection and exposed to 3 μg total DNA (plasmid pLMW-IRES or pHMW-IRES) and 3 μl Lipofectamine 2000 (Invitrogen, Carlsbad, USA) in DMEM without FBS according to the manufacture's brochure of Lipofectamine 2000. […]
(§2) U87-LMW-IRES and U87-HMW-IRES cells were treated with indicated concentrations (0, 0.1, 1 and 10 μg/ml) of liposomal thalidomide for 12 hr, and the two luciferase activities were measured in each cell extracts by scintillation counting in a Victor 2 1420 Multilabel Counter (Wallac, PerkinElmer). The IRES activity was determined by calculating the LucR/LucF ratios (the ratio of renilla to firefly luciferase activity) normalized by the untreated control.

[7] = system: HMW-IRES; test: Bicistronic luciferase IRES activity, U87-HMW-IRES cells; assay type: cell-based, human; settings: 0.1˜10 μg/ml, 12 hr
From the text: as §1, §2

[8] = system: G-rich bFGF DNA fragment; test: UV-VIS absorbance of thalidomide after incubation with bFGF DNA fragments; assay type: binding, human; settings: G-rich fragment (91% GC) versus non-G-rich control fragment (44% GC)
Experimental: The G-rich fragment with 91% GC content and non-G-rich control fragment with 44% GC content were designed from the promoter region of bFGF (FIG. 6A). To examine whether thalidomide could interact preferentially with the G- and/or GC-rich region of bFGF, the ultraviolet-visible (UV-VIS) absorbance of thalidomide was assayed using a Hitachi U2000 Spectrophotometer with the scanning range from 330 to 190 nm. The absorbance of thalidomide would be diminished by bound tightly with the secondary structure of a DNA (Usha et al., 2005).

[9] = system: bFGF RNA levels in U-87 MG cells
Experimental: The U-87 MG cells were purchased from American Type Culture Collection (ATCC, Rockville, Md.) and maintained in Dulbecco's modified Eagle's medium (DMEM; Gibco) containing 10% heat inactivated fetal bovine serum (FBS; Gibco) and antibiotics, such as penicillin G (Sigma-Aldrich) and streptomycin (Sigma-Aldrich), at 37° C. in a humidified incubator of 5% CO2-95% air. Thalidomide (TYY Biopharm, Taiwan) was dissolved in dimethyl sulfoxide (DMSO; Sigma-Aldrich) first to make a stock solution of 50 mg/ml, and then diluted to various, desired concentrations with medium. The maximum of the final concentration of DMSO in the medium was 0.02%.
Real-time RT-PCR analysis was used to assess the RNA levels of bFGF in U-87 MG cells. After being treated with indicated concentrations (0, 0.1, 1 and 10 μg/ml) of thalidomide for 3 hr and 12 hr, U-87 MG cells were washed twice with ice-cold phosphate buffered saline (PBS) and RNA was extracted by using RNA-Bee™ RNA isolation solvent (Tel-test). Total RNA (5 μg) was used to prepare cDNA by using AMV reverse transcriptase (Promega). The reverse-transcribed cDNA samples were analyzed by real-time PCR using ABI Prism 7700 Sequence Detection System (Applied Biosystems) and the SYBR Green Master Mix kit (Applied Biosystems). […]

[10] = system: HMW and LMW bFGF isoforms in U-87 MG cells; settings: 1 and 10 μg/ml, 12 hr
Experimental: Immunoblot (or western blot) analysis was therefore performed to analyze the amount of different bFGF isoforms and GAPDH was used as die internal control, which level would not be affected by thalidomide. After being treated with indicated concentrations (0, 0.1, 1 and 10 μg/ml) of free-form and liposomal thalidomide, U-87 MG cell lysate was prepared using lysis buffer (50 mM Tris [hydroxymethyl] aminomethane (Tris; USB), 1% (v/v) TritonX-100 (Sigma-Aldrich), 150 mM sodium chloride (NaCl; J. T. Baker), 1 mM ethylenediaminetetraacetic acid (EDTA; Sigma-Aldrich), 1 mM phenylmethylsulphonyl fluoride (PMSF; Sigma-Aldrich). Cell lysates (2 μg) containing proteins were separated with using 15% polyacrylamide gel electrophoresis and transferred to a polyvinylidene fluoride (PVDF) membrane (PerkinElmer). The membrane was incubated with polyclonal rabbit anti human bFGF antibody (ab16828, Abeam) at 1:200 dilution or anti-GAPDH antibody (ab9482, Abeam) at 1:10000 dilution, which was used as an internal control, followed by horseradish peroxidase-conjugated anti-IgG secondary antibody (Jackson ImmunoResearch) at 1:5000 dilution. The enhanced chemiluminescent (ECL; PerkinElmer) detection method (Amersham) was used for blotting analysis.

[11] = system: G-rich hTERT promoter; settings: Drucker et al., 2003; cited from earlier work
[12] = system: genes with GC-rich promoter; settings: Drucker et al., 2003; cited from earlier work
[13] = system: LPS induced TNF-α secretion by monocytes; settings: Sampaio et al., 1991; cited from earlier work
[14] = clinical daily dose 200 to 800 mg, maximum 1200 mg; cited from earlier work
[15] = Stability of thalidomide in culture medium alone (9 hr pre-incubation, then bFGF transcript readout); settings: 0.1˜10 μg/ml, 9 hr at 37° C. in culture medium before 3 hr on cells
Experimental: In order to test the stability of thalidomide in the culture medium alone, the thalidomide stock solution was diluted with fresh culture medium to 0.1˜10 μg/ml and incubated at 37° C. in a humidified incubator of 5% CO2-95% air for 9 hr before being added to the U-87 MG cells for 3 hr.

[16] = listed as free-form thalidomide

O=C1CCC(N2C(=O)c3ccccc3C2=O)C(=O)N1 (racemic) [thalidomide, 2-(2,6-dioxo-3-piperidinyl)-1H-iso-indole-1,3(2H)-dione]
total level of bFGF proteins ([1]; FACS, 12 hr (FIG. 2A)): down-regulated
nuclear level of bFGF proteins ([1]; fluorescence microscopy, 12 hr (FIG. 2B)): down-regulated
suppression of the proliferation of U-87 MG cells [2]: ineffectiveness
colony-forming ability in soft agar (anchorage-independent growth) [3]: efficiently inhibited
colony-forming ability in soft agar (anchorage-independent growth) [3, 16]: dose-dependent response
effective concentration on colony-forming ability in soft agar [3]: 0.1 µg/mL
cell aggregates formed in spheroid culture [4]: efficiently inhibited
cell aggregates formed in spheroid culture [4, 16]: abolished
EGFP fluorescence (flow cytometry) [5]: diminish
EGFP transcripts (real-time RT-PCR) [5]: diminish
LMW-IRES activity (LucR/LucF ratio) [6]: down regulated
LMW-IRES activity (LucR/LucF ratio) ([6]; listed as Thalidomide): alter the IRES activity in a dose-dependent manner
HMW-IRES activity (LucR/LucF ratio) [7]: down regulated
HMW-IRES activity (LucR/LucF ratio) ([7]; listed as Thalidomide): alter the IRES activity in a dose-dependent manner
quench of the absorbance at 230 nm [8]: more severe quench
bFGF RNA levels ([9]; 0.1˜10 μg/ml, 3 hr): markedly reduced
inhibitory effect on bFGF expression (RNA) ([9]; 12 hr treatment): disappeared
decrease of the HMW bFGFs compared with LMW bFGFs [10]: more dramatic than that of LMW ones
concentrations used to suppress the G-rich hTERT promoter [11]: 12.5 µg/mL and 25 µg/mL
concentration down-regulating transcripts levels for genes with GC-rich promoter [12]: over 12.5 μg/ml
concentration inhibiting LPS induced TNF-α secretion [13]: 0.3 µg/mL
serum concentration [14]: 1800 to 10000 ng/mL
activity after incubation in culture media (stability) [15]: completely lost its activity
